The text below walks through data of US7700375B2, “Fluorescent labeling of specific protein targets in vitro and in vivo” (Valorisation-Recherche, LP, priority 2004, dated 2010).

Each structure is given as a SMILES string. In brackets after ≈: the same amount, converted by molar mass.

The target in series [1] is T1, mCys-Fos (Homo sapiens, UniProt P01100, C204S).
T1 construct: the C99S mutant of a fragment of Fos; His-tag (N); made in house; host or cells: XL1-blue E. coli
Nature of the series: Protein labeling in vitro, SDS-PAGE with UV illumination. The note with it: 0.242 mM protein, 0.5 mM of 20 or 0.05 mM of 13, 25° C. overnight. The series is classed as biochemical. The protocol:
(§1) As mentioned in the introduction, an α-helical protein was designed to bear two cysteine residues, separated by a distance complementary to that between the maleimide groups of the designated fluorogen. The protein chosen as a starting point for this design was the C99S mutant of a fragment of Fos,^21 a known α-helical protein^22 whose recombinant expression has been published.^23 Site-directed mutagenesis was then performed^20,35 to introduce a cysteine residue (L56C), separated by two turns of the α-helical motif from the native Cys49, positioning the protein's only two thiol groups approximately 10 Å apart.^36 Although at higher concentrations, Fos is known to form a homodimer,^22 the distance between the intermolecular cysteine residues in this putative homodimer would render their reaction with a single fluorogen molecule impossible. […]
(§2) Purified mCys-Fos and diCys-Fos were then tested in vitro for their ability to react with fluorogens 13 and 20. After incubation of 0.242 mM protein with 0.5 mM of 20 or 0.05 mM of 13 at 25° C. overnight, glycerol was added and the reaction mixtures were analyzed by SDS-PAGE using UV illumination and then Coomassie blue staining. […]

Series [2] is described as follows: Fluorescence spectral properties of fluorogens and their ethanethiol adducts. Format: physicochemical. The settings on record: 10:90 DMSO: water. The procedure:
For the application of this fluorogenic reaction to the detection of thiols and dithiols, two important criteria are the fluorescence intensity of the thiol addition product and the ratio of its fluorescence compared to its parent fluorogen. We studied the effect of electron withdrawing and donating substituants on these criteria by preparing the derivatives of fluorogen 4 shown in Scheme 1. Fluorogen 5, bearing an electron withdrawing ester group, was prepared according to a protocol similar to that used for fluorogen 4, but using an ester-substituted maleic anhydride derived by oxidation of dimethyl L-tartrate according to a published procedure.^31 Fluorogen 6 bears an electron donating methyl group and was obtained in similar yield by adaptation of the standard literature protocol,^25 using citraconic anhydride. The reaction of 5 and 6 with ethanethiol in DMSO led to the formation of thiol adducts 8 and 9, whose fluorescence was characterized as shown in Table 1. Even from this small series, certain tendencies are apparent. Increasing the electron donating capacity of the substituent appears to have a significant effect on the absorbance maximum corresponding to the wavelength of excitation, increasing by 37 nm from 8 to 9. Although the emission wavelength increases very slightly over the same series, the net effect on the Stokes shift is a significant decrease with increasing electron donating capacity of the substituent.
(§3) Comparison of the fluorescent properties^34 of the four different parent fluorogens (and their corresponding thiol adducts) studied herein (see Table 2) substantiates our retention of compounds 13 and 20 as candidates for further tests with proteins.
The following material were obtained from Aldrich and were used without further purification: 2-hydroxy-5-nitrobenzaldehyde, N-acetylglycine, maleic anhydride, p-nitrophenylacetic acid, L-aspartic acid dimethyl ester hydrochloride, citraconic anhydride, dimethyl L-tartrate, dimethyl malonate. All reactions were carried out under an atmosphere of dry nitrogen employing conventional bench-top techniques except for reactions with thiols. ^13C-NMR and ^1H-NMR spectra were recorded on AMXR400 or AMX300 spectrometers and were referenced to the residual proton or ^13C signal of the solvent. Mass spectra were determined by FAB+ ionization on an AutoSpecQ spectrometer at the Regional Mass Spectrometry Centre at the Université de Montréal. Infrared spectra were recorded on a Perkin-Elmer (FTIR) spectrometer. Melting points (uncorrected) were determined on a Unimelt Tomas-Hoover or on a Gallenkamp meting point apparatus. Fluorescence spectra were recorded using a Varian Cary Eclipse fluorimeter and gel electrophoresis was carried out on a SpectraPhoresis 100 apparatus.

In series [3] the test system is COS cells. The series can be described thus: Cytotoxicity, MTT and PI assays. The series is classed as cell-based. The protocol: (§4) Finally, we wished to determine if fluorogens such as 13 and 20 were cytotoxic. […] Furthermore, even at 300 μM 20, the limit of its solubility in cell culture, 70% of COS cells were still viable (FIG. 8). […] The convenience of the application of this fluorescent labeling method is obvious from the low cytoxocity of 20, even at concentrations 30 times greater than those necessary for efficient labeling.

A short description of series [4]: Solubility. The series is classed as physicochemical. The procedure:
as §3, §4

In series [5] the target is T2, diCys-Fos (Homo sapiens, UniProt P01100, C204S/L161C). Nature of the series: Labeling in lysate of E. coli cells expressing diCys-Fos, SDS-PAGE. The note with it: overnight at 25° C. Format: biochemical. The protocol: The specificity of the dithiol addition reaction of 20 with diCys-Fos in the presence of other proteins was also confirmed through a simple in vitro experiment. The lysate of E. coli cells expressing diCys-Fos was allowed to react with 20 overnight at 25° C. prior to analysis by SDS-PAGE.
T2 sequence (P01100 118-211 L161C/C204S limits assumed): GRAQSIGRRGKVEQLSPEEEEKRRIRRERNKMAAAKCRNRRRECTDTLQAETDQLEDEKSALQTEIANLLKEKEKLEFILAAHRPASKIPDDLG

The target of series [6] is T2, diCys-Fos. The series can be described thus: Protein labeling in living COS cells expressing diCys-Fos fused to RBD of Raf. Format: cell-based. More on the design: the C99S mutant of a fragment of Fos; expressed in transfected cells; host or cells: COS cells. The protocol: The ultimate proof of principle for this method is its successful application to labeling a specific protein in living eukaryotic cells. To test for this potential, our diCys-Fos probe protein was genetically fused to RBD, the Ras-binding domain of Raf, and COS cells were then transfected with the expression plasmid for this fusion protein. A solution of 20 was then added to cultures of COS cells expressing diCys-Fos as well as mock COS cells transfected with an empty expression plasmid.

The target of series [7] is T2, diCys-Fos. Nature of the series: Protein labeling in vitro, SDS-PAGE with UV illumination. More on the design: the C99S mutant of a fragment of Fos. The series is classed as biochemical. The settings on record: 0.242 mM protein, 0.5 mM of 20 or 0.05 mM of 13, 25° C. overnight. The protocol: as §1, §2

T1 sequence (P01100 118-211 C204S limits assumed): as the sequence (P01100 118-211 L161C/C204S limits assumed) above, with C44L counted along it

For `COC(=O)C[C@@H](C(=O)OC)N1C(=O)c2cc(N3C(=O)C=CC3=O)cc3cc(N4C(=O)C=CC4=O)cc(c23)C1=O` [Compound 20, N-(3,6-Dimaleimidyl-1,8-naphthalyl)-L-aspartic acid dimethyl ester], in series [1], the “fluorescent labeling of mCys-Fos” value is on record as “is not”. In series [2], the Stokes shift came out at 67 nm; the “λem (emission band)” value is reported as 525-650 nm; the “λem, wavelength corresponding to center of Full Width at Half Maximum of emission band” value was 578 nm; the λexc came to 511 nm. Also, in series [2] (ratio of areas under emission bands of fluorogen and thiol adduct), the “IF Ratio” value is 8.5. Moreover, the “viable COS cells” value in series [3] (300 μM) stood at 70%. In series [3] (COS cells), the “concentration with low cytotoxicity relative to that necessary for efficient labeling” value worked out at 30 times. In addition, the “percentage of viable COS cells” value in series [3] (concentrations of up to 30 μM) is reported as “unaffected”. The “solubility in water / aqueous DMSO” value in series [4] is recorded as “soluble in aqueous solutions containing as little as 5% DMSO”. For the same compound, the solubility in series [4] (cell culture, plasma or biological fluid, read-out: limit of solubility in cell culture) was 300 µM (≈ 159 µg/mL). Further, in series [5], the “selectivity for diCys-Fos in the presence of other cytosolic proteins” value is listed as “selectivity of 20 for its designated target protein”. Besides, the “fluorescence of COS cells expressing diCys-Fos vs mock COS cells” value in series [6] (10 μM, 20 minutes, room temperature) is “significant difference in fluorescence”. In addition, in series [6] (COS cells), the cell permeability entry was “confirming the cell permeability”. Also, the “fluorescent labeling of diCys-Fos” value in series [7] was “efficiently fluorescently labeled”.
